From PubChem BioAssay (NCI)
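Results reflect a 48-hour exposure of cells in 96-well plates to compound at five concentrations. GI50 = concentration required for 50% inhibition of growth. The concentration for full growth arrest is given as TGI.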

Columns and labels:
Assay in all cases: inhibition of tumour cell growth, NCI panel, 48 h
HCC-2998 colon = test system: HCC-2998 colon
HCT-116 colon = test system: HCT-116 colon
HOP-62 NSCLC = test system: HOP-62 NSCLC
MDA-MB-435 = test system: MDA-MB-435
PC-3 prostate = test system: PC-3 prostate
SF-268 CNS = test system: SF-268 CNS
SK-MEL-28 melanoma = test system: SK-MEL-28 melanoma
SK-MEL-5 melanoma = test system: SK-MEL-5 melanoma
SNB-19 CNS = test system: SNB-19 CNS
MCF7 breast = test system: MCF7 breast

O=C([O-])CC(=O)[O-].[NH-][C@@H]1CCCC[C@H]1[NH-].[Pt+4]
GI50 (HCC-2998 colon): 18.9 µM
TGI (HCC-2998 colon): > 100 µM
GI50 (HCT-116 colon): 4.84 µM
TGI (HCT-116 colon): > 100 µM
GI50 (HOP-62 NSCLC): > 27.1 µM
TGI (HOP-62 NSCLC): > 100 µM
GI50 (MDA-MB-435): 15.5 µM
TGI (MDA-MB-435): > 100 µM
GI50 (PC-3 prostate): 37 µM
TGI (PC-3 prostate): > 100 µM
GI50 (SF-268 CNS): 59.1 µM
TGI (SF-268 CNS): > 100 µM
GI50 (SK-MEL-28 melanoma): 35.8 µM
TGI (SK-MEL-28 melanoma): > 100 µM
GI50 (SK-MEL-5 melanoma): 16.9 µM
TGI (SK-MEL-5 melanoma): > 100 µM
GI50 (SNB-19 CNS): 32.1 µM
TGI (SNB-19 CNS): > 100 µM

C[C@H]1C=C2C(=O)O[C@H]3CC[C@@H](C1)[C@@]23O
TGI (HCC-2998 colon): 26.8 µM
TGI (HCT-116 colon): 9.24 µM
TGI (SF-268 CNS): 15.2 µM
TGI (SK-MEL-28 melanoma): 16.1 µM
TGI (SK-MEL-5 melanoma): 16.6 µM
TGI (SNB-19 CNS): 30.6 µM

COC(C)C(O)(C(=O)OCC1=CCN2CCC(O)C12)C(C)(C)O (stereo unspecified)
TGI (HCC-2998 colon): > 100 µM
TGI (HCT-116 colon): > 100 µM
TGI (MCF7 breast): > 100 µM
TGI (MDA-MB-435): > 100 µM
TGI (PC-3 prostate): > 100 µM
TGI (SF-268 CNS): > 100 µM
TGI (SK-MEL-28 melanoma): > 100 µM
TGI (SK-MEL-5 melanoma): > 100 µM
TGI (SNB-19 CNS): > 100 µM

COc1ccc2c(c1)CCc1c-2n[nH]c1-c1[nH]nc2c1CCc1cc(OC)ccc1-2
TGI (HCC-2998 colon): > 100 µM
TGI (HCT-116 colon): > 100 µM
TGI (HOP-62 NSCLC): 56.3 µM
TGI (SF-268 CNS): > 100 µM
TGI (SK-MEL-28 melanoma): > 100 µM
TGI (SK-MEL-5 melanoma): > 100 µM
TGI (SNB-19 CNS): > 100 µM

CC1=CCCC2C(C=O)(C1)CC(C)C2(CO)CC/C(=C/CO)CO (stereo unspecified)
TGI (HCC-2998 colon): > 100 µM
TGI (HCT-116 colon): > 100 µM
TGI (SK-MEL-28 melanoma): > 100 µM
TGI (SK-MEL-5 melanoma): > 100 µM

COc1cc2c3c(n(CCCNCCCN)c(=O)c2cc1OC)-c1cc2c(cc1C3=O)OCO2
GI50 (HCT-116 colon): 1.34 µM
TGI (HCT-116 colon): 5.32 µM
GI50 (HOP-62 NSCLC): 1.6 µM
TGI (HOP-62 NSCLC): 13 µM
GI50 (MCF7 breast): 0.504 µM
TGI (MCF7 breast): 5.08 µM
GI50 (MDA-MB-435): 2.53 µM
TGI (MDA-MB-435): 13.5 µM
GI50 (PC-3 prostate): 3.53 µM
TGI (PC-3 prostate): 14.6 µM
GI50 (SF-268 CNS): 1.98 µM
TGI (SF-268 CNS): 10.5 µM
GI50 (SK-MEL-28 melanoma): 4.37 µM
TGI (SK-MEL-28 melanoma): 17.8 µM
GI50 (SK-MEL-5 melanoma): 5.35 µM
TGI (SK-MEL-5 melanoma): 19 µM
GI50 (SNB-19 CNS): 1.52 µM
TGI (SNB-19 CNS): 11.6 µM

O/N=C/c1ccc(O)c(O)c1
TGI (HCC-2998 colon): > 100 µM
TGI (HCT-116 colon): > 100 µM
TGI (HOP-62 NSCLC): > 100 µM
TGI (SF-268 CNS): > 100 µM
TGI (SK-MEL-28 melanoma): > 100 µM
TGI (SK-MEL-5 melanoma): > 100 µM
TGI (SNB-19 CNS): > 100 µM

CC(=O)[CH-]C(=O)c1ccccc1.CC(=O)[CH-]C(=O)c1ccccc1.[O-]c1ccc2c(c1)OCO2.[O-]c1ccc2c(c1)OCO2.[Ti+4]
GI50 (HCC-2998 colon): 24.6 µM
TGI (HCC-2998 colon): 61.6 µM
GI50 (HCT-116 colon): 37 µM
TGI (HCT-116 colon): > 100 µM
GI50 (HOP-62 NSCLC): 20.4 µM
TGI (HOP-62 NSCLC): 93.8 µM
GI50 (SF-268 CNS): 33.6 µM
TGI (SF-268 CNS): > 100 µM
GI50 (SK-MEL-28 melanoma): 32.7 µM
TGI (SK-MEL-28 melanoma): > 100 µM
GI50 (SK-MEL-5 melanoma): 29.1 µM
TGI (SK-MEL-5 melanoma): 78.6 µM
GI50 (SNB-19 CNS): 20.8 µM
TGI (SNB-19 CNS): 69.7 µM

COc1ccc([C@@H]2OC(=O)C3C2C(=O)O[C@H]3c2ccc(OC)c(OC)c2)cc1OC (stereo partly specified)
TGI (HCC-2998 colon): > 100 µM
TGI (HCT-116 colon): > 100 µM
TGI (HOP-62 NSCLC): > 100 µM
TGI (SF-268 CNS): > 100 µM
TGI (SK-MEL-28 melanoma): > 100 µM
TGI (SK-MEL-5 melanoma): > 100 µM
TGI (SNB-19 CNS): > 100 µM

COc1ccc2c(c1)CN1CCc3c(cc(OC)c(OC)c3OC)C1C2 (stereo unspecified)
TGI (HCC-2998 colon): > 100 µM
TGI (HCT-116 colon): > 100 µM
TGI (HOP-62 NSCLC): > 100 µM
TGI (SF-268 CNS): > 100 µM
TGI (SK-MEL-28 melanoma): > 100 µM
TGI (SK-MEL-5 melanoma): > 100 µM
TGI (SNB-19 CNS): > 100 µM

CO/N=C(\COc1ccc2oc(-c3ccccc3)cc(=O)c2c1)c1ccc(F)cc1
GI50 (HCC-2998 colon): 23.6 µM
TGI (HCC-2998 colon): 54.4 µM
GI50 (HCT-116 colon): 20.3 µM
TGI (HCT-116 colon): 48.2 µM
GI50 (HOP-62 NSCLC): 18.6 µM
TGI (HOP-62 NSCLC): 35.2 µM
GI50 (MDA-MB-435): > 100 µM
TGI (MDA-MB-435): > 100 µM
GI50 (PC-3 prostate): 22.6 µM
TGI (PC-3 prostate): 57.3 µM
GI50 (SK-MEL-28 melanoma): 48.2 µM
TGI (SK-MEL-28 melanoma): > 100 µM
GI50 (SK-MEL-5 melanoma): 31.3 µM
TGI (SK-MEL-5 melanoma): 93.5 µM

C1=CCCC=CCC1.C[PH+](C)C.C[PH+](C)C.C[PH+](C)C.[Cl-].[Ir]
GI50 (HCC-2998 colon): 91.4 µM
TGI (HCC-2998 colon): > 100 µM
GI50 (HCT-116 colon): 42.9 µM
TGI (HCT-116 colon): > 100 µM
GI50 (HOP-62 NSCLC): > 100 µM
TGI (HOP-62 NSCLC): > 100 µM
GI50 (SK-MEL-28 melanoma): 46.6 µM
TGI (SK-MEL-28 melanoma): > 100 µM
GI50 (SK-MEL-5 melanoma): 70 µM
TGI (SK-MEL-5 melanoma): > 100 µM

COc1ccc2[nH]c(C(=O)OCc3ccc4c(Cl)cc(Cl)c(O)c4n3)cc2c1
GI50 (HCC-2998 colon): 1.64 µM
TGI (HCC-2998 colon): 3.29 µM
GI50 (HCT-116 colon): 0.436 µM
TGI (HCT-116 colon): 1.65 µM
GI50 (HOP-62 NSCLC): 1.33 µM
TGI (HOP-62 NSCLC): 2.8 µM
GI50 (MDA-MB-435): 1.13 µM
TGI (MDA-MB-435): 2.45 µM
GI50 (PC-3 prostate): 0.99 µM
TGI (PC-3 prostate): 2.57 µM
GI50 (SF-268 CNS): 1.42 µM
TGI (SF-268 CNS): 2.77 µM
GI50 (SK-MEL-28 melanoma): 1.67 µM
TGI (SK-MEL-28 melanoma): 3.03 µM
GI50 (SK-MEL-5 melanoma): 1.65 µM
TGI (SK-MEL-5 melanoma): 3.02 µM
GI50 (SNB-19 CNS): 2.18 µM
TGI (SNB-19 CNS): 5.69 µM

C[C@]12C[C@H](O)[C@H]3[C@@H](CCC4=CC(=O)CC[C@@]43C)[C@@H]1CC[C@@H]2c1csc(-c2ccccc2)n1
TGI (HCT-116 colon): > 100 µM
TGI (HOP-62 NSCLC): > 51.3 µM
TGI (MCF7 breast): > 100 µM
TGI (MDA-MB-435): > 100 µM
TGI (PC-3 prostate): 20.3 µM
TGI (SF-268 CNS): > 100 µM
TGI (SK-MEL-28 melanoma): > 100 µM
TGI (SNB-19 CNS): > 100 µM

O=C1NC2C(O)CCCCC2C12CCCCC2 (stereo unspecified)
TGI (HCT-116 colon): > 100 µM
TGI (HOP-62 NSCLC): > 100 µM
TGI (SF-268 CNS): > 100 µM
TGI (SK-MEL-28 melanoma): > 100 µM
TGI (SK-MEL-5 melanoma): > 100 µM
TGI (SNB-19 CNS): > 100 µM

COC(=O)CC[C@]12C[C@]13CC[C@]1(C)C4C(C)C[C@]5(CC(C)C(=O)O5)OC4CC1(C)C3CCC2C(C)(C)O (stereo partly specified)
TGI (HCC-2998 colon): > 100 µM
TGI (HCT-116 colon): > 100 µM
TGI (HOP-62 NSCLC): > 100 µM
TGI (SF-268 CNS): > 100 µM
TGI (SK-MEL-28 melanoma): > 100 µM
TGI (SK-MEL-5 melanoma): > 100 µM
TGI (SNB-19 CNS): > 100 µM

COc1c(N2CCN(CN3C(=O)C(=Nc4ccc(S(=O)(=O)Nc5ncccn5)cc4)c4cc(Cl)ccc43)C(C)C2)c(F)cc2c(=O)c(C(=O)O)cn(C3CC3)c12 (stereo unspecified)
GI50 (HCT-116 colon): 9.19 µM
TGI (HCT-116 colon): 21.7 µM
GI50 (HOP-62 NSCLC): 18.2 µM
TGI (HOP-62 NSCLC): > 50 µM
GI50 (MCF7 breast): 11.9 µM
TGI (MCF7 breast): 44.4 µM
GI50 (MDA-MB-435): 10.3 µM
TGI (MDA-MB-435): 21.1 µM
GI50 (PC-3 prostate): 15 µM
TGI (PC-3 prostate): > 50 µM
GI50 (SF-268 CNS): 12.1 µM
TGI (SF-268 CNS): > 50 µM
GI50 (SK-MEL-28 melanoma): 30.4 µM
TGI (SK-MEL-28 melanoma): > 50 µM
GI50 (SK-MEL-5 melanoma): 7.99 µM
TGI (SK-MEL-5 melanoma): 15.8 µM
GI50 (SNB-19 CNS): 15.7 µM
TGI (SNB-19 CNS): 49.4 µM

COc1cc2cnc3c4cc(OCc5ccccc5)ccc4ccc3c2cc1OC
TGI (HCC-2998 colon): > 100 µM
TGI (HCT-116 colon): > 100 µM
TGI (HOP-62 NSCLC): 76.5 µM
TGI (SF-268 CNS): > 100 µM
TGI (SK-MEL-28 melanoma): > 100 µM
TGI (SK-MEL-5 melanoma): 76 µM
TGI (SNB-19 CNS): > 100 µM

C=C1C[C@@H]2C[C@@H](C)CC(O)[C@]2(CCCN)C1O (stereo partly specified)
TGI (HCC-2998 colon): > 100 µM
TGI (HCT-116 colon): > 100 µM
TGI (HOP-62 NSCLC): > 100 µM
TGI (SF-268 CNS): > 100 µM
TGI (SK-MEL-28 melanoma): > 100 µM
TGI (SK-MEL-5 melanoma): > 100 µM
TGI (SNB-19 CNS): > 100 µM

CC1c2[nH]c3ccccc3c2CCN1O (stereo unspecified)
TGI (HCC-2998 colon): > 100 µM
TGI (HCT-116 colon): > 100 µM
TGI (SF-268 CNS): > 100 µM
TGI (SK-MEL-28 melanoma): > 100 µM
TGI (SK-MEL-5 melanoma): > 100 µM
TGI (SNB-19 CNS): > 100 µM

O=c1/c(=N\Nc2ccccc2)c2cccc3ccc4cccc1c4c32
TGI (HCT-116 colon): > 100 µM
TGI (HOP-62 NSCLC): > 100 µM
TGI (MDA-MB-435): > 100 µM
TGI (PC-3 prostate): > 100 µM
TGI (SF-268 CNS): > 100 µM
TGI (SK-MEL-28 melanoma): > 100 µM
TGI (SK-MEL-5 melanoma): > 100 µM
TGI (SNB-19 CNS): > 100 µM
